Assay results published in the supplement of paper PMC6045584.
± gives the standard deviation of the averaged measurements.

Compound: COCC[n+]1c2c(n(Cc3cnccn3)c1C)C(=O)c1ccccc1C2=O [YM155]
Assay: surviving fraction relative to DMSO-only wells; higher = less growth inhibition
Conditions: 50 nM; exposure time: 5 days
In short: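 At 250–500 cells per well in 384-well plates, log-phase tumour cell lines were seeded and, 24 hours on, exposed continuously for five days to inhibitors at 0.5, 1, 5, 10, 50, 100, 500 and 1000 nM. Viability readout was CellTiter-Glo luminescence, reported as surviving fraction normalised to the median of DMSO-only wells.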

**Q.** For CAL51 BREAST, which surviving fraction is on record?
**A.** 0.0278 ± 0.001

**Q.** For OSHN BONE, which surviving fraction is on record?
**A.** 0.0293 ± 0.0011

**Q.** For MCF7 BREAST, which surviving fraction is on record?
**A.** 0.0596 ± 0.0041

**Q.** HT1080 SOFT TISSUE was tested. Which surviving fraction did it give?
**A.** 0.063 ± 0.0027

**Q.** Which surviving fraction does the source give for MDAMB157 BREAST here?
**A.** 0.0573 ± 0.024

**Q.** 143B BONE was tested. Which surviving fraction did it give?
**A.** 0.0735 ± 0.0064

**Q.** Which surviving fraction does the source give for SIHA CERVIX here?
**A.** 0.0433 ± 0.0055

**Q.** With MDAMB134 BREAST as the test system, how does the surviving fraction read?
**A.** 0.775 ± 0.051

**Q.** SG32 HEADNECK was tested. Which surviving fraction did it give?
**A.** 0.0633 ± 0.027

**Q.** Which surviving fraction does the source give for NCIH441 LUNG here?
**A.** 0.0333 ± 0.0011

**Q.** SG31 HEADNECK was tested. Which surviving fraction did it give?
**A.** 0.391 ± 0.13

**Q.** OS25HAL BONE was tested. Which surviving fraction did it give?
**A.** 0.0603 ± 0.0068

**Q.** With HCC1954 BREAST as the test system, how does the surviving fraction read?
**A.** 0.0892 ± 0.02

**Q.** With VP229 BREAST as the test system, how does the surviving fraction read?
**A.** 0.265 ± 0.085

**Q.** With 22RV1 PROSTATE as the test system, how does the surviving fraction read?
**A.** 0.151 ± 0.16

**Q.** MDAMB231 BREAST was tested. Which surviving fraction did it give?
**A.** 0.0386 ± 0.0022

**Q.** How did the surviving fraction turn out when RDES SOFT TISSUE was run?
**A.** 0.0673 ± 0.0035

**Q.** With LM7 BONE as the test system, how does the surviving fraction read?
**A.** 0.039 ± 0.0056

**Q.** With HMT3552 BREAST as the test system, how does the surviving fraction read?
**A.** 0.17 ± 0.027

**Q.** SNU475 LIVER was tested. Which surviving fraction did it give?
**A.** 0.372 ± 0.035

**Q.** With HCC38 BREAST as the test system, how does the surviving fraction read?
**A.** 0.043 ± 0.0056

**Q.** HU09 BONE was tested. Which surviving fraction did it give?
**A.** 0.5387 ± 0.004

**Q.** With ASKA SYNOVIAL as the test system, how does the surviving fraction read?
**A.** 0.227 ± 0.017

**Q.** CADOES1 SOFT TISSUE was tested. Which surviving fraction did it give?
**A.** 1.02 ± 0.056

**Q.** How did the surviving fraction turn out when SAOS2 BONE was run?
**A.** 0.053 ± 0.0069

**Q.** For MDAMB436 BREAST, which surviving fraction is on record?
**A.** 0.195 ± 0.05

**Q.** How did the surviving fraction turn out when 93VU HEADNECK was run?
**A.** 0.839 ± 0.034

**Q.** For KPD BONE, which surviving fraction is on record?
**A.** 0.0473 ± 0.0081

**Q.** How did the surviving fraction turn out when SYO1 SYNOVIAL was run?
**A.** 0.0558 ± 0.0015

**Q.** With BT20 BREAST as the test system, how does the surviving fraction read?
**A.** 0.028 ± 0.0017

**Q.** How did the surviving fraction turn out when SUM44 BREAST was run?
**A.** 0.358 ± 0.12

**Q.** With CAL120 BREAST as the test system, how does the surviving fraction read?
**A.** 0.0243 ± 0.001

**Q.** How did the surviving fraction turn out when CHLA90 AUTONOMIC GANGLIA was run?
**A.** 0.106 ± 0.028

**Q.** With HCC1806 BREAST as the test system, how does the surviving fraction read?
**A.** 0.064 ± 0.0027

**Q.** How did the surviving fraction turn out when HCC78 LUNG was run?
**A.** 0.0407 ± 0.0029

**Q.** How did the surviving fraction turn out when MFM223 BREAST was run?
**A.** 0.0798 ± 0.051

**Q.** SG43 HEADNECK was tested. Which surviving fraction did it give?
**A.** 0.783 ± 0.052

**Q.** Which surviving fraction does the source give for HOS BONE here?
**A.** 0.0267 ± 0.00058

**Q.** For MDAMB468 BREAST, which surviving fraction is on record?
**A.** 0.034 ± 0.002

**Q.** SG27 HEADNECK was tested. Which surviving fraction did it give?
**A.** 0.105 ± 0.035

**Q.** With ZR751 BREAST as the test system, how does the surviving fraction read?
**A.** 0.128 ± 0.017

Same assay, conditions: 100 nM; exposure time: 5 days

**Q.** With CAL51 BREAST as the test system, how does the surviving fraction read?
**A.** 0.0232 ± 0.00058

**Q.** How did the surviving fraction turn out when OSHN BONE was run?
**A.** 0.025 ± 0.001

**Q.** For MCF7 BREAST, which surviving fraction is on record?
**A.** 0.043 ± 0.003

**Q.** HT1080 SOFT TISSUE was tested. Which surviving fraction did it give?
**A.** 0.0373 ± 0.0021

**Q.** With MDAMB157 BREAST as the test system, how does the surviving fraction read?
**A.** 0.031 ± 0.003

**Q.** 143B BONE was tested. Which surviving fraction did it give?
**A.** 0.0375 ± 0.0021

**Q.** How did the surviving fraction turn out when SIHA CERVIX was run?
**A.** 0.022 ± 0.002

**Q.** With MDAMB134 BREAST as the test system, how does the surviving fraction read?
**A.** 0.634 ± 0.13

**Q.** How did the surviving fraction turn out when SG32 HEADNECK was run?
**A.** 0.025 ± 0.0036

**Q.** With NCIH441 LUNG as the test system, how does the surviving fraction read?
**A.** 0.0273 ± 0.00058

**Q.** SG31 HEADNECK was tested. Which surviving fraction did it give?
**A.** 0.291 ± 0.15

**Q.** For OS25HAL BONE, which surviving fraction is on record?
**A.** 0.0357 ± 0.0042

**Q.** With HCC1954 BREAST as the test system, how does the surviving fraction read?
**A.** 0.035 ± 0.0064

**Q.** Which surviving fraction does the source give for VP229 BREAST here?
**A.** 0.137 ± 0.0015

**Q.** How did the surviving fraction turn out when 22RV1 PROSTATE was run?
**A.** 0.165 ± 0.23

**Q.** For MDAMB231 BREAST, which surviving fraction is on record?
**A.** 0.0352 ± 0.002

**Q.** Which surviving fraction does the source give for RDES SOFT TISSUE here?
**A.** 0.0373 ± 0.0015

**Q.** How did the surviving fraction turn out when LM7 BONE was run?
**A.** 0.0237 ± 0.00058

**Q.** How did the surviving fraction turn out when HMT3552 BREAST was run?
**A.** 0.0797 ± 0.0055

**Q.** With SNU475 LIVER as the test system, how does the surviving fraction read?
**A.** 0.123 ± 0.012

**Q.** Which surviving fraction does the source give for HCC38 BREAST here?
**A.** 0.031 ± 0.002

**Q.** For HU09 BONE, which surviving fraction is on record?
**A.** 0.374 ± 0.016

**Q.** With ASKA SYNOVIAL as the test system, how does the surviving fraction read?
**A.** 0.195 ± 0.017

**Q.** For CADOES1 SOFT TISSUE, which surviving fraction is on record?
**A.** 0.934 ± 0.071

**Q.** For SAOS2 BONE, which surviving fraction is on record?
**A.** 0.0327 ± 0.006

**Q.** With MDAMB436 BREAST as the test system, how does the surviving fraction read?
**A.** 0.115 ± 0.031

**Q.** 93VU HEADNECK was tested. Which surviving fraction did it give?
**A.** 0.815 ± 0.06

**Q.** How did the surviving fraction turn out when KPD BONE was run?
**A.** 0.0347 ± 0.004

**Q.** How did the surviving fraction turn out when SYO1 SYNOVIAL was run?
**A.** 0.0337 ± 0.0012

**Q.** With BT20 BREAST as the test system, how does the surviving fraction read?
**A.** 0.025 ± 0.0027

**Q.** With SUM44 BREAST as the test system, how does the surviving fraction read?
**A.** 0.225 ± 0.055

**Q.** Which surviving fraction does the source give for CAL120 BREAST here?
**A.** 0.0215 ± 0.00087

**Q.** Which surviving fraction does the source give for CHLA90 AUTONOMIC GANGLIA here?
**A.** 0.0633 ± 0.013

**Q.** With HCC1806 BREAST as the test system, how does the surviving fraction read?
**A.** 0.05 ± 0.0044

**Q.** With HCC78 LUNG as the test system, how does the surviving fraction read?
**A.** 0.0247 ± 0.004

**Q.** How did the surviving fraction turn out when MFM223 BREAST was run?
**A.** 0.085 ± 0.085

**Q.** SG43 HEADNECK was tested. Which surviving fraction did it give?
**A.** 0.705 ± 0.084

**Q.** Which surviving fraction does the source give for HOS BONE here?
**A.** 0.0197 ± 0.00058

**Q.** For MDAMB468 BREAST, which surviving fraction is on record?
**A.** 0.0367 ± 0.0031

**Q.** For SG27 HEADNECK, which surviving fraction is on record?
**A.** 0.0347 ± 0.0038

**Q.** ZR751 BREAST was tested. Which surviving fraction did it give?
**A.** 0.0917 ± 0.0067
